Measured values published in patent US6342494B1, “Carbapenem compounds, use thereof, and intermediate compounds of the same” (Kyoto Pharmaceutical Industries, Ltd., priority 1997, dated 2002).

Experiments:
[1] = dogs, 20 mg/kg oral, measured as hydrolyzed carbapenem compound (A)
Description: The compound of the present invention (compound of Example 6, 20 mg/kg) was orally administered to dogs (3 per group) and urinary hydrolyzed carbapenem compound (A) concentration at 0-3, 3-6 and 6-24 hours later was measured by a paper disc method using test bacteria Escherichia coli NIHJ and nutrient agar medium (Difco). The urinary recovery percentage was determined.

[2] = dogs, 20 mg/kg oral, measured as hydrolyzed carbapenem compound (A); remark: listed apart in the source
Description: The compound of the present invention (compound of Example 6, 20 mglkg) was orally administered to dogs (3 per group) and plasma hydrolyzed carbapenem compound (A) concentration at 0.25, 0.5, 1.0, 1.5, 2.0, 3.0, 4.0 and 6.0 hours later was measured by a paper disc method using test bacteria Escherichia coli NIHJ and nutrient agar medium (Difco).

Cc1oc(=O)oc1CN1C[C@@H](SC2=C(C(=O)OCOC(=O)C(C)(C)C)N3C(=O)[C@H]([C@@H](C)O)[C@H]3[C@H]2C)C[C@H]1C(=O)N(C)C.Cl [Example 6, Pivaloyloxymethyl (1R,5S,6S)-2-{(3S,5S)-[5-N,N-dimethylaminocarbonyl-1-(5-methyl-2-oxo-1,3-dioxolen-4-yl)methyl]pyrrolidin-3-ylthio}-6-[(1R)-1-hydroxyethyl]-1-methylcarbapen-2-em-3-carboxylate hydrochloride]
urinary recovery (%) 0-3 hr ([1]; 0-3 hr): 10.3%
urinary recovery (%) 0-24 hr ([1]; 0-24 hr): 13.0%
urinary recovery (%) 3-6 hr ([1]; 3-6 hr): 2.4%
urinary recovery (%) 6-24 hr ([1]; 6-24 hr): 0.3%
concentration in plasma (μg/ml) 0.25 hr ([2]; 0.25 hr): 5.06 µg/mL
concentration in plasma (μg/ml) 0.5 hr ([2]; 0.5 hr): 6.56 µg/mL
concentration in plasma (μg/ml) 1.0 hr ([2]; 1.0 hr): 7.60 µg/mL
concentration in plasma (μg/ml) 1.5 hr ([2]; 1.5 hr): 7.67 µg/mL
concentration in plasma (μg/ml) 2.0 hr ([2]; 2.0 hr): 5.92 µg/mL
concentration in plasma (μg/ml) 3.0 hr ([2]; 3.0 hr): 3.68 µg/mL
concentration in plasma (μg/ml) 4.0 hr ([2]; 4.0 hr): 1.92 µg/mL
concentration in plasma (μg/ml) 6.0 hr ([2]; 6.0 hr): 0.43 µg/mL
